# Results from patent US4052403A, “2-Hydroxyimino-1,2,3,4,6,7-hexahydro-11bH-benzo [a] quinolisine derivatives” (EGYT Gyogyszervegyeszeti Gyar, priority 1975, dated 1977).
# “And” between values parts separate entries of the source, which are not always exact repeats. Equal entries are not always repeated. “Also recorded” adds a separate entry of the source.
# Tests used:
# [1] = anticholinergic / atropine-like activity; details: in vivo
# waking cats = assay: behavioural effects in waking cats, compared with scopolamine; assay type: in vivo; details: for akinesia / standing position / behavioural effects in cats (first effects) / paralysis: s.c. 100 mg/kg isomer "b", 150 mg/kg scopolamine; for paralysis: 30 minutes after administration
# Procedure: Accordingly, the effects of this "b" iosmer were compared directly with scopolamine by the use of a subcutaneous dosage of 100 mg/kg of the former and 150 mg/kg of the latter.
# [2] = well-known, cited from earlier work
# [3] = acute toxicity, subcutaneous administration; details: mouse, in vivo, sc, mice
# Procedure: The acute toxicities of the new compounds having the general formula (I) were measured on mice, under subcutaneous administration.
# [4] = tested on: amphetamine-provoked hypermotility; assay: inhibition of amphetamine-provoked hypermotility (psychosedative effect); assay type: in vivo; details: mice, amphetamine 3 mg/kg s.c. simultaneously, control = 100%
# Procedure: This conclusion was based upon experimentation with mice by measuring their inhibition ability exerted on amphetamine-provoked hypermotility. the animals so tested were treated subcutaneously with 3 mg/kg of amphetamine (α-methyl-phenethylamine)while simultaneously administering the novel compound of formula (I) herein. A control test was run in which no psychosedative agent was used. The extent of hypermotility observed in the control group treated only with 3 mg/kg of amphetamine was regarded as 100%, and the percentage of inhibition observed in the test groups was related to this value.
# waking dogs = assay: behavioural effects in waking dogs, compared with scopolamine; assay type: in vivo
# [5] = tested on: analgesic effect of morphine; assay: potentiation of the analgesic effect of morphine; details: in vivo
# [6] = tested on: narcosis provoked by hexobarbital; assay: potentiation of the narcosis provoked by hexobarbital; details: in vivo
smiles,measurement,setting,value
CN1[C@@H]2C[C@@H](OC(=O)[C@H](CO)c3ccccc3)C[C@H]1[C@@H]1O[C@@H]12 [scopolamine],anticholinerg activity,[1],did not exert anticholinerg activity
same,atropine-like effect,[1],marked atropine-like effect
same,akinesia / standing position,waking cats; cats,remained in a standing position
same,behavioural effects in cats (first effects),waking cats; cats,restlessness coupled with hallucinations of the same type and degree
same,paralysis,waking cats; cats,all animals were paralyzed
same,therapeutic psychosedative effects,[2]; small dosages,therapeutic psychosedative effects
same,side effects,[2],strong atropine-like parasympatholytic side effects
"CCOc1cc2c(cc1OCC)C1CC(=NO)C3CCCCC3N1CC2 (stereo not shown) [2-Hydroxyimino-3,4-cyclohexano-9,10-diethoxy-1,2,3,4,6,7,-hexahydro-11bH-benzo[a]quinolisine]",LD50,[3],> 300 mg/kg
same,Inhibition (of amphetamine-provoked hypermotility),[4]; 100 mg/kg s.c.,85%
"COc1cc2c(cc1OC)C1CC(=NO)C3CCCCC3N1CC2 (stereo not shown) [2-Hydroxyimino-3,4-cyclohexano-9,10-dimethoxy-1,2,3,4,6,7-he] [2-Hydroxyimino-3,4-cyclohexano-9,10-dimethoxy-1,2,3,4,6,7-hexahydro-11bH-benzo[a]quinolisine]",Inhibition (of amphetamine-provoked hypermotility),[4]; 20 mg/kg s.c.,66%
same,Inhibition (of amphetamine-provoked hypermotility),[4]; 100 mg/kg s.c.,33%
same,symptoms in waking dogs compared with scopolamine,waking dogs,symptons similar to those os scopolamine
same,"awakening upon smell, slight noise and tactile stimuli",waking dogs; 10 mg/kg s.c.,"not a narcotic effect, for the dogs were awakened readily upon smell stimuli related to food or slight noice and tactile stimuli"
same,behavior after awakening,waking dogs; 10 mg/kg s.c.,normal behavior after awakening
same,behavioural effects in waking dogs,waking dogs; 10 mg/kg s.c.,remarkable quietness and the animals fell asleep
same,akinesia / standing position,waking cats; cats,"more complete akinesia than scopolamine; also recorded: could not be brought to a standing position, their limbs immediately sliding apart although the carriage of their heads remained stationary"
same,behavioural effects in cats (first effects),waking cats; cats,restlessness coupled with hallucinations of the same type and degree
same,paralysis,waking cats; cats,all animals were paralyzed
same,response to capsaicine dropped into the eyes,"waking cats; cats, s.c., capsaicine into eyes",long-lasting blepharospasm and mewing
same,response to painful stimuli,"waking cats; cats, s.c., painful stimuli",strong mewing response
same,symptoms in waking cats compared with scopolamine,waking cats; waking cats,symptons similar to those os scopolamine
same,potentiation of the analgesic effect of morphine,[5],did not potentiate the analgesic effect of morphine
same,potentiation of the narcosis provoked by hexobarbital,[6],nor did it potentiate the narcosis provoked by hexobarbital
"COc1cc2c(cc1OC)C1CC(=NO)C3CCCC3N1CC2 (stereo not shown) [2-Hydroxyimino-3,4-cyclopentano-9,10-dimethoxy-1,2,3,4,6,7-h] [2-Hydroxyimino-3,4-cyclopentano-9,10-dimethoxy-1,2,3,4,6,7-hexahydro-11bH-benzo[a]quinolisine]",Inhibition (of amphetamine-provoked hypermotility),[4]; 100 mg/kg s.c.,40% and 61%
"COc1cc2c(cc1OC)C1CC(=NO)C3CCCC3N1CC2 (stereo not shown) [2-Hydroxyimino-3,4-cyclopentano-9,10-dimethoxy-1,2,3,4,6,7-hexahydro-11bH-benzo[a]quinolisine]",LD50,[3],> 500 mg/kg
